Here are results for nine compounds from PMC10302127 (Medicina, 2023).

One data set relates to Aspergillus niger. Nature of the data set: Mycelial growth inhibition, poisoned food method. To be noted: for Millimeters of Fungal Mycelial Growth Inhibition in DMSO (20 μg/μL): Aspergillus niger, 20 μg/μL in DMSO. It is filed as cell-based. How it is done: (§1) The potato dextrose agar (PDA)-based antifungal experiment was screened using the food poisoning approach. Sterilized 70 mm glass Petri dishes were filled with 20 mL melted PDA (45 °C). After the medium solidified, sterilized needles placed small amounts of mycelia from the two fungal pathogens in the center of each plate. […] After 48 h at 37 °C, mycelial growth was measured.

The next data set concerns Aspergillus flavus. As to the kind of experiment: Mycelial growth inhibition, poisoned food method. The class given is cell-based. To be noted: 20 μg/μL in DMSO. The method, then:
as §1

Another data set has as its system five bacterial pathogens. Nature of the data set: Antibacterial disc diffusion, statements on groups of bacteria. It is filed as cell-based. How it is done: (§2) The antibacterial activity of the synthesized compound was evaluated using the disc diffusion method in accordance with the clinical and laboratory standards institute’s recommendations. Molten Mueller–Hinton agar and Sabouraud dextrose agar media were inoculated with the inoculum at 35 ± 2 °C and then poured into a Petri dish (90 mm). Each sample was soaked on 6 mm absorbent discs in dimethyl sulfoxide (DMSO) and placed on the inoculation plates. After 2 h at 4 °C, the plates were incubated at 35 ± 2 °C for 18–20 h. The inhibition zone diameters were determined. Positive control discs of selected antibiotics were included in each assay; inhibition zones were compared to the reference discs. Negative controls were treated with DMSO, and the assays were performed in triplicate.

Data set [1] deals with EAC (Ehrlich ascites carcinoma) cells. As to the kind of experiment: MTT assay, antiproliferative activity. It is filed as cell-based, Swiss albino mouse. How it is done:
Ehrlich ascites carcinoma (EAC) cells were cultivated in conventional DMEM from a Swiss albino mouse bearing a tumor [45]. A 96-well flat-bottomed cell culture plate with 2 × 10^4 cells in 100 μL was incubated at 37 °C in a CO2 incubator for 24 h. Controls were three wells of untreated EAC cells in DMEM. […] After removing the aliquot, 10 mM PBS and 20 μL of MTT reagent (5 mg/mL MTT in PBS) were added. After another 8 h at 37 °C, the aliquot was drained, and acidic isopropanol (200 μL) was added. Absorbance values at 570 nm were recorded after another 30 min CO2 incubator incubation. The following formula was used to estimate cell proliferation incubation:Proliferation inhibition ratio (%) = (A − B) × 100/A where A and B represent the cellular homogenate OD570 nm from control wells and compound 6-treated wells, respectively.
Background: Formazan colour is commonly taken as a measure of viable cells.

The subject of data set [2] is P. aeruginosa. Nature of the data set: Antibacterial disc diffusion. It is filed as cell-based, Pseudomonas aeruginosa. The conditions noted are these: P. aeruginosa (G − ve). The method, then:
as §2

The test system of data set [3] is E. coli. As to the kind of experiment: Antibacterial disc diffusion. The class given is cell-based, Escherichia coli. The conditions noted are these: E. coli (G − ve). How it is done: as §2
(In general: Agar diffusion results depend on both activity and mobility in agar.)

In the next data set the test system is S. aureus. As to the kind of experiment: Antibacterial disc diffusion. To be noted: S. aureus (G + ve) in Table 2, disc diffusion. The class given is cell-based. The method, then:
as §2

For data set [4], the system named is B. subtilis. Nature of the data set: Antibacterial disc diffusion. It is filed as cell-based, Bacillus subtilis. To be noted: B. subtilis (G + ve). How it is done: as §2
Another data set deals with S. typhi. As to the kind of experiment: Antibacterial disc diffusion. It is filed as cell-based, Salmonella typhi. To be noted: S. typhi (G − ve). The method, then: as §2
A further data set deals with brine shrimp nauplii. Nature of the data set: Brine shrimp lethality bioassay. To be noted: 24 and 48 h. The method, then: Vials A, B, C, and D contained 4, 8, 16, and 32 μL of material. Each vial received 10 brine shrimp nauplii at […]. Ten nauplii in 5 mL saltwater were used for a control test. The vials were incubated at room temperature for 24–48 h. After incubation, the vials were magnified and counted to determine how many survived. Each concentration has an average nauplii mortality rate.

Data set [5] concerns B. subtilis. As to the kind of experiment: MIC and MBC microdilution. The conditions noted are these: Bacillus subtilis.
Protocol: (§3) Microdilution techniques were employed to calculate the minimum inhibitory concentration (MIC) and the minimum bactericidal concentration (MBC). […] After solidification, the medium incorporated was seeded from suspensions of bacteria at a concentration of 0.5 McFarland standard (1.0 × 10^8 CFU/mL). After 18–20 h of incubation at 35 ± 2 °C, the absence or presence of microbial growth in Petri dishes was determined by examination with the naked eye. […] All compounds were evaluated three times against each microorganism.
In data set [6] the test system is E. coli. Nature of the data set: MIC and MBC microdilution. To be noted: Escherichia coli. Background: Broth dilution looks for growth in wells or tubes with falling amounts of substance.
Protocol: as §3
The test system of a further data set is B. cereus. Nature of the data set: MIC and MBC microdilution. The conditions noted are these: Bacillus cereus.
Another data set concerns S.typhi. Nature of the data set: MIC and MBC microdilution. To be noted: Salmonella enterica.
The next data set has as its system Bacillus cereus. Nature of the data set: Antibacterial disc diffusion. The conditions noted are these: as named in text. It is filed as cell-based. How it is done: as §2
Data set [7] concerns P. aeruginosa. As to the kind of experiment: MIC and MBC microdilution. To be noted: Pseudomonas aeruginosa.
Protocol: as §3

Usually IC50 stands for the concentration that inhibits the measured activity by half. Low values mean inhibition by little substance, high ones a need for much substance. As a reminder, the MBC is the lowest tested concentration that kills the bacteria rather than only halting them. A low value points to greater bactericidal potency. The term MIC denotes the least concentration at which growth counts as inhibited. High values mean a need for much substance, low ones inhibition by little substance.

The structures appear in SMILES notation. Converted amounts (≈) assume the structure as drawn. Some results are limits rather than exact numbers.

Protocol for B. cereus: as §3
Protocol for S.typhi: as §3

Take `CCCCCCCCCCCCCCCC(=O)OC[C@H]1O[C@@H](n2ccc(=O)[nH]c2=O)[C@H](OC(=O)C=Cc2ccccc2)[C@@H]1OC(=O)C=Cc1ccccc1` [Compound 6, 2′,3′-Di-oxo-cinnamoyl-5′-oxo-palmitoyluridine]: the “inhibition of A. niger” value in the data set on Aspergillus niger is 72 ± 0.95%. Further, the “Millimeters of Fungal Mycelial Growth Inhibition in DMSO (20 μg/μL)” value in the data set with Aspergillus niger is “* 72 ± 0.95 Millimeters”; in the data set with Aspergillus flavus, 53 ± 0.33 Millimeters. In addition, the “activity against Gram-positive organisms” value in the data set on five bacterial pathogens is “inactive”. Besides, the “inhibition among all bacterial types” value in the data set with five bacterial pathogens is given as “no inhibition”. The cytotoxicity effects in [1] (15.625 µg/mL) is recorded as 3.11%; in [1] (31.25 µg/mL) it was 4.41%; in [1] (62.25 µg/mL (62.5 in Figure 5)), 5.41%; in data set [1] (125 µg/mL), 7.51%; in data set [1] (250 µg/mL) it was 14.02%; in data set [1] (500 µg/mL) it was 23.22%. In data set [1] (Mus musculus, Ehrlich, MTT), the 50% inhibitory concentration (IC50) is above 500 µg/mL.
Take `CC[C@H]1OC(=O)[C@H](C)[C@@H](O[C@H]2C[C@@](C)(OC)[C@@H](O)[C@H](C)O2)[C@H](C)[C@@H](O[C@@H]2O[C@H](C)C[C@H](N(C)C)[C@H]2O)[C@](C)(O)C[C@@H](C)CN(C)[C@H](C)[C@@H](O)[C@]1(C)O` [Azithromycin, reference compound]: the “Diameter of Inhibition Zones” value in the data set on P. aeruginosa [2] is recorded as “** 15 ± 0.10 mm”; with E. coli [3], “** 17 ± 0.50 mm”; with S. aureus it was “** 17 ± 0.50 mm”; in the data set on B. subtilis [4] it was “** 18 ± 0.10 mm”; with S. typhi, “** 18 ± 0.90 mm”.
On to `CCCCCCCCCCCCCCCC(=O)OCC1OC(n2ccc(=O)[nH]c2=O)C(OC(=O)CCCCCCCCCCC)C1OC(=O)CCCCCCCCCCC` (centres unmarked) [Compound 3, 2′,3′-Di-oxo-lauroyl-5′-oxo-palmitoyluridine], for which, in the data set on five bacterial pathogens, the “activity against Gram-positive organisms” value was “inactive”; the “inhibition against the Gram-negative bacteria P. aeruginosa and S. typhi” value is “reasonable inhibition”. Besides, in the data set on brine shrimp nauplii, the “death (brine shrimp mortality)” value was 48.24–49.28%. For the same compound, in the data set with S. typhi, the “Diameter of Inhibition Zones” value is on record as “* 11.0 ± 0.0 mm”.
Regarding `O=c1ccn([C@@H]2O[C@H](CO)[C@@H](O)[C@H]2O)c(=O)[nH]1` [Compound 1, uridine, reference compound], in the data set with five bacterial pathogens, the “activity against Gram-positive organisms” value is “inactive” and the “inhibition among all bacterial types” value is on record as “no inhibition”.
On to `CCCCCCCCCCCCCCCC(=O)OCC1OC(n2ccc(=O)[nH]c2=O)C(OC(=O)CCCCCCCCCCCCC)C1OC(=O)CCCCCCCCCCCCC` (centres unmarked) [Compound 4, 2′,3′-Di-oxo-myristoyl-5′-oxo-palmitoyluridine], for which the “Millimeters of Fungal Mycelial Growth Inhibition in DMSO (20 μg/μL)” value with Aspergillus flavus amounted to 31 ± 0.15 Millimeters. In the data set on five bacterial pathogens, the “inhibition against the Gram-negative bacteria P. aeruginosa and S. typhi” value is “reasonable inhibition”. Besides, the figures for the “Diameter of Inhibition Zones” value in the data set with P. aeruginosa [2] and in the data set with S. aureus were 7 ± 0.25 mm and “* 15 ± 0.50 mm”, respectively. The figures for the MBC against B. subtilis [5], against S.typhi and against P. aeruginosa [7] were 8 µg/mL (≈ 8.86 µM), 16 µg/mL (≈ 17.7 µM) and 16 µg/mL (≈ 17.7 µM), respectively. The MIC against B. subtilis [5] amounted to 4 µg/mL (≈ 4.43 µM); in the data set with E. coli [6], 0.5 µg/mL (≈ 0.554 µM); in the data set with B. cereus it was 0.13 µg/mL (≈ 0.144 µM); in the data set on S.typhi, 0.5 µg/mL (≈ 0.554 µM); against P. aeruginosa [7] it was 0.5 µg/mL (≈ 0.554 µM). Moreover, in the data set on brine shrimp nauplii, the “death (brine shrimp mortality)” value was 48.24–49.28%. In addition, the inhibition zone with Bacillus cereus turned out to be 15 ± 0.50 mm.
With `C[C@@H]1[C@H](O)[C@@H](C)/C=C/C=C/CC/C=C/C=C/C=C/C=C/C(O[C@H]2O[C@H](C)[C@@H](O)[C@H](N)[C@@H]2O)CC2O[C@](O)(CC(O)C(O)CCC(O)CC(O)CC(O)CC(=O)O[C@H]1C)CC(O)C2C(=O)O` (some centres unmarked) [Nystatin, reference compound], in the data set on Aspergillus niger, the “inhibition of A. niger” value is recorded as 59 ± 0.00% and the “Millimeters of Fungal Mycelial Growth Inhibition in DMSO (20 μg/μL)” value is on record as 59 ± 0.00 Millimeters. Further, in the data set on Aspergillus flavus, the “Millimeters of Fungal Mycelial Growth Inhibition in DMSO (20 μg/μL)” value came out at 61 ± 0.00 Millimeters.
Consider `CCCCCCCCCCCCCCCC(=O)OC[C@H]1O[C@@H](n2ccc(=O)[nH]c2=O)[C@H](OC(=O)c2ccc(C(C)(C)C)cc2)[C@@H]1OC(=O)c1ccc(C(C)(C)C)cc1` [Compound 7, 2′,3′-Di-oxo-(4-t-butylbenzoyl)-5′-oxo-palmitoyluridine], for which, in the data set on Aspergillus niger, the “inhibition of A. niger” value was 66 ± 0.41% and the “Millimeters of Fungal Mycelial Growth Inhibition in DMSO (20 μg/μL)” value is “* 66 ± 0.41 Millimeters”. For the same compound, in the data set on Aspergillus flavus, the “Millimeters of Fungal Mycelial Growth Inhibition in DMSO (20 μg/μL)” value is recorded as “* 63 ± 0.10 Millimeters”. For the same compound, in the data set on five bacterial pathogens, the “activity against Gram-positive organisms” value is “inactive”; the “inhibition against the Gram-negative bacteria P. aeruginosa and S. typhi” value is “reasonable inhibition”. In addition, the “death (brine shrimp mortality)” value with brine shrimp nauplii is listed as 33.71%. The “Diameter of Inhibition Zones” value in the data set with S. typhi was 9 ± 0.00 mm.
Turning to `CCCCCCCCCCCCCCCC(=O)OC[C@H]1O[C@@H](n2ccc(=O)[nH]c2=O)[C@H](O)[C@@H]1O` [Compound 2, 5′-Oxo-palmitoyluridine], in the data set on five bacterial pathogens, the “activity against Gram-positive organisms” value was “inactive” and the “inhibition among all bacterial types” value is recorded as “no inhibition”. The “death (brine shrimp mortality)” value in the data set on brine shrimp nauplii came to 31.21%.
Turning to `CCCCCCCCCCCCCCCC(=O)OCC1OC(n2ccc(=O)[nH]c2=O)C(OC(c2ccccc2)(c2ccccc2)c2ccccc2)C1OC(c1ccccc1)(c1ccccc1)c1ccccc1` (centres unmarked) [Compound 5, 5′-oxo-Palmitoyl-2′,3′-di-oxo-trityluridine], the “inhibition of A. niger” value in the data set with Aspergillus niger is listed as 64 ± 0.44%. Besides, the “Millimeters of Fungal Mycelial Growth Inhibition in DMSO (20 μg/μL)” value was “* 64 ± 0.44 Millimeters” with Aspergillus niger and “* 66 ± 0.39 Millimeters” in the data set on Aspergillus flavus. In addition, the minimal bactericidal concentration (MBC) was determined as 8 µg/mL (≈ 8.27 µM) against B. subtilis [5], 8 µg/mL (≈ 8.27 µM) against E. coli [6] (E. coli), 16 µg/mL (≈ 16.5 µM) in the data set on B. cereus (B. cereus) and 8 µg/mL (≈ 8.27 µM) in the data set with S.typhi. Moreover, the minimal inhibitory concentration (MIC) is 0.5 µg/mL (≈ 0.517 µM) against B. subtilis [5], 4 µg/mL (≈ 4.14 µM) against E. coli [6], 1 µg/mL (≈ 1.03 µM) in the data set on B. cereus and 0.5 µg/mL (≈ 0.517 µM) against S.typhi. Besides, in the data set with brine shrimp nauplii, the “death (brine shrimp mortality)” value was 34.25%. This compound displayed an inhibition zone with Bacillus cereus of 16 ± 0.20 mm. The “Diameter of Inhibition Zones” value in the data set with S. aureus is reported as “* 16 ± 0.20 mm”; in the data set with S. typhi it was “* 12 ± 0.25 mm”.
